Experimental data reported in US4500526A, “Cephalosporin derivatives” (Bristol-Myers Company, priority 1983, dated 1985).
Values after ≈ are worked out from the molar mass of the structure shown. Where two headings read alike, the source gives them in different places.

Experiments:
[1] = tested on: Cephalothinresistant E. coli (3 strains) and Kl. pneumoniae (3 strains); assay: MIC, two-fold serial agar dilution, group (G-)-Ib; assay type: cell-based; settings: Escherichia coli, read-out: Geometric Mean of MIC
Protocol: (§1) In the primary evaluation of the compounds of this invention, the Minimum Inhibitory Concentrations (MIC's) of the compounds were determined by the two-fold serial agar dilution method in Mueller-Hinton agar against 32 strains of test organisms in six groups. The sample weights of the test compounds were adjusted according to the purity of each compound, so as to give a more accurate measure of the MIC's.
(G-)Ib: Cephalothinresistant E. coli (3 strains) and Kl. pneumoniae (3

[2] = tested on: Penicillinsensitive S. aureus (5 strains); assay: MIC, two-fold serial agar dilution, group (G+)-Ia; assay type: cell-based; settings: Staphylococcus aureus, read-out: Geometric Mean of MIC
Protocol: as §1
(G+)Ia: Penicillinsensitive S. aureus (5 strains)

[3] = Mouse blood levels after single intramuscular injection; assay type: in vivo, mice; settings: in vivo, im, 20 mg/kg
Protocol: The absorption of some of the preferred compounds were determined in mice following a single intramuscular injection of the test compound (dissolved in 0.1M phosphate buffer; pH 7) at a dosage of 20 mg/kg. Blood samples were collected from the orbital sinuses into heparinized capillary tubes and assayed in Nutrient Agar (pH 6.6) using E. coli Ess-22-31 as the test organism. The blood levels at various time intervals, the half-life values (t1/2) and the areas under the curve (AUC) are shown in Table 2.

[4] = tested on: Cephalothinsensitive E. coli (2 strains), Kl. pneumoniae (1 strain) and Pr. mirabilis (2 strains); assay: MIC, two-fold serial agar dilution, group (G-)-Ia; assay type: cell-based; settings: 5 strains, Mueller-Hinton agar, read-out: Geometric Mean of MIC
Protocol: as §1
(G-)Ia: Cephalothinsensitive E. coli (2 strains), Kl. pneumoniae (1
strain) and Pr. mirabilis (2 strains)

[5] = tested on: Ps. aeruginosa (6 strains); assay: MIC, two-fold serial agar dilution, group (G-)-III; assay type: cell-based; settings: Pseudomonas aeruginosa, read-out: Geometric Mean of MIC
Protocol: as §1
(G-)III: Ps. aeruginosa (6 strains)

[6] = tested on: P. aeruginosa A9843; assay: Median protective dose in infected mice; assay type: in vivo; settings: Pseudomonas aeruginosa, im, immediately after intraperitoneal challenge, read-out: PD50
Protocol: (§2) The median protective dose (PD50) of some of the preferred compounds against various microorganisms was determined in mice by intramuscular administration of the test compound immediately after an intraperitoneal bacterial challenge.

[7] = tested on: E. coli Juhl; assay: Median protective dose in infected mice; assay type: in vivo; settings: Escherichia coli, im, immediately after intraperitoneal challenge, read-out: PD50
Protocol: as §2

[8] = tested on: S. aureus Smith; assay: Median protective dose in infected mice; assay type: in vivo; settings: Staphylococcus aureus, im, immediately after intraperitoneal challenge, read-out: PD50
Protocol: as §2

[9] = tested on: M. morganii (1 strain), Ent. cloacae (2 strains) and Ser. marcescens (2 strains); assay: MIC, two-fold serial agar dilution, group (G-)-II; assay type: cell-based; settings: read-out: Geometric Mean of MIC
Protocol: as §1
(G-)II: M. morganii (1 strain), Ent. cloacae (2 strains) and Ser.

[10] = tested on: Penicillinresistant S. aureus (5 strains); assay: MIC, two-fold serial agar dilution, group (G+)-Ib; assay type: cell-based; settings: Staphylococcus aureus, read-out: Geometric Mean of MIC
Protocol: as §1
(G+)Ib: Penicillinresistant S. aureus (5 strains)

[11] = tested on: N. meningitidis (5); assay: In vitro activity against fastidious bacteria, two-fold serial agar dilution; assay type: cell-based; settings: Neisseria meningitidis, read-out: Geometric Mean of MIC
Protocol: (§3) The in vitro activity of some of the preferred compounds against 30 strains of fastidious bacteria was determined by the two-fold serial agar dilution method in Gonococcus agar (GC agar), and the results are shown in Table 3.

[12] = tested on: H. influenzae (7) (ampicillin sensitive); assay: as above; assay type: cell-based; settings: Haemophilus influenzae, GC agar, 7 strains, read-out: Geometric Mean of MIC
Protocol: as §3

[13] = tested on: N. gonorrhoeae (5); assay: as above; assay type: cell-based; settings: Neisseria gonorrhoeae, read-out: Geometric Mean of MIC
Protocol: as §3

[14] = tested on: S. pyogenes (5 strains); assay: as above; assay type: cell-based; settings: Streptococcus pyogenes; GC agar; read-out: Geometric Mean of MIC
Protocol: as §3

[15] = tested on: H. influenzae (3) (ampicillin resistant); assay: as above; assay type: cell-based; settings: Haemophilus influenzae, read-out: Geometric Mean of MIC
Protocol: as §3

[16] = tested on: S. pneumoniae (5); assay: as above; assay type: cell-based; settings: Streptococcus pneumoniae; GC agar; read-out: Geometric Mean of MIC
Protocol: as §3

[17] = (G+)-Ia, 5 strains, Mueller-Hinton agar
[18] = (G-)-II, 5 strains, Mueller-Hinton agar
[19] = (G+)-Ib, 5 strains, Mueller-Hinton agar
[20] = (G-)-III, 6 strains, Mueller-Hinton agar

Row | SMILES | MIC [1] | MIC [2, 17] | AUC [3] | concentration at 10 min [3] | concentration at 20 min [3] | concentration at 0.5 h [3] | concentration at 40 min [3] | concentration at 50 min [3] | concentration at 1 h [3] | concentration at 1.5 h [3] | concentration at 2 h [3] | half-life [3] | MIC [4] | ED50 [6] | ED50 [7] | ED50 [8] | MIC [9, 18] | MIC [10, 19] | MIC [5, 20] | MIC [9] | other results
1 | Nc1nc(/C(=N/OC2(C(=O)O)CCC2)C(=O)NC2C(=O)N3C(C(=O)[O-])=C(C[n+]4ccc5scnc5c4)CS[C@H]23)cs1 (stereo partly drawn) [Ie, 7-[(Z)-2-(2-Aminothiazol-4-yl)-2-(1-carboxycyclobut-1-oxyimino)-acetamido]-3-{(5-thiazolo[4,5-c]pyridinio)methyl}-3-cephem-4-carboxylate] | 0.5 mg/L (≈ 0.812 µM) | 2.2 mg/L (≈ 3.57 µM) | 7.9 µg·h/mL | 13 µg/mL | 12 µg/mL | 7.5 µg/mL | 4.3 µg/mL | 3 µg/mL | 2.6 µg/mL | 0.51 µg/mL | 0.15 µg/mL | 16 min | 0.023 mg/L (≈ 0.0374 µM) | 1.8 mg/kg | 0.08 mg/kg | 3.1 mg/kg | 0.34 mg/L (≈ 0.552 µM) | 4.4 mg/L (≈ 7.15 µM) |  |  | MIC [5]: 1.3 mg/L (≈ 2.11 µM); MIC [11]: 0.1 mg/L (≈ 0.162 µM); MIC [12]: 0.1 mg/L (≈ 0.162 µM); MIC [13]: 0.1 mg/L (≈ 0.162 µM); MIC [14]: 0.2 mg/L (≈ 0.325 µM); MIC [15]: 0.1 mg/L (≈ 0.162 µM); MIC [16]: 0.2 mg/L (≈ 0.325 µM)
2 | CO/N=C(\C(=O)NC1C(=O)N2C(C(=O)[O-])=C(C[n+]3ccc4sc(NC(=O)OC)nc4c3)CS[C@H]12)c1csc(N)n1 (stereo partly drawn) [Is, 7-[(Z)-2-(2-Aminothiazol-4-yl)-2-methoxyiminoacetamido]-3-(2-methoxycarbonylamino-5-thiazolo[4,5-c]pyridinio)methyl-3-cephem-4-carboxylate] | 0.69 mg/L (≈ 1.14 µM) | 0.46 mg/L (≈ 0.761 µM) | 13 µg·h/mL | 19 µg/mL | 18 µg/mL | 14 µg/mL | 6.7 µg/mL | 4.6 µg/mL | 4.6 µg/mL | 2.2 µg/mL | 1.1 µg/mL | 26 min | 0.038 mg/L (≈ 0.0628 µM) | 10 mg/kg | 0.018 mg/kg | 1.2 mg/kg |  | 0.8 mg/L (≈ 1.32 µM) | 14 mg/L (≈ 23.2 µM) | 0.6 mg/L (≈ 0.992 µM) | 
3 | CO/N=C(\C(=O)NC1C(=O)N2C(C(=O)[O-])=C(C[n+]3ccc4sc(NC(=O)N5CCCC5)nc4c3)CS[C@H]12)c1csc(N)n1 (stereo partly drawn) [It, 7-[(Z)-2-(2-Aminothiazol-4-yl)-2-methoxyiminoacetamido]-3-[2-(pyrrolidin-1-ylcarbonylamino)-5-thiazolo[4,5-c]pyridinio]methyl-3-cephem-4-carboxylate] | 0.92 mg/L (≈ 1.43 µM) | 0.53 mg/L (≈ 0.823 µM) | 13 µg·h/mL | 19 µg/mL | 18 µg/mL | 11 µg/mL | 7.8 µg/mL | 6.6 µg/mL | 5.4 µg/mL | 2.1 µg/mL | 0.89 µg/mL | 24 min | 0.3 mg/L (≈ 0.466 µM) | > 25 mg/kg | 0.2 mg/kg | 1.9 mg/kg | 2.8 mg/L (≈ 4.35 µM) |  | 34 mg/L (≈ 52.8 µM) |  | MIC [10]: 1.6 mg/L (≈ 2.49 µM)
4 | CO/N=C(\C(=O)NC1C(=O)N2C(C(=O)[O-])=C(C[n+]3ccc4sc(N(C)C)nc4c3)CS[C@H]12)c1csc(N)n1 (stereo partly drawn) [Iu, 7-[(Z)-2-(2-Aminothiazol-4-yl)-2-methoxyiminoacetamido]-3-(2-dimethylamino-5-thiazolo[4,5-c]pyridinio)methyl-3-cephem-4-carboxylate] | 0.11 mg/L (≈ 0.191 µM) | 0.46 mg/L (≈ 0.8 µM) | 9.8 µg·h/mL | 18 µg/mL | 13 µg/mL | 9.6 µg/mL | 5.5 µg/mL | 3.4 µg/mL | 2.6 µg/mL | 1 µg/mL | 0.34 µg/mL | 19 min | 0.012 mg/L (≈ 0.0209 µM) | 4.6 mg/kg | 0.013 mg/kg | 0.48 mg/kg |  | 0.8 mg/L (≈ 1.39 µM) | 6.3 mg/L (≈ 11 µM) | 0.23 mg/L (≈ 0.4 µM) | 
5 | CO/N=C(\C(=O)NC1C(=O)N2C(C(=O)[O-])=C(C[n+]3ccc4sc(C(=O)O)nc4c3)CS[C@H]12)c1csc(N)n1 (stereo partly drawn) [Iv, 7-[(Z)-2-(2-Aminothiazol-4-yl)-2-methoxyiminoacetamido]-3-(2-carboxy-5-thiazolo[4,5-c]pyridinio)methyl-3-cephem-4-carboxylate] | 1.2 mg/L (≈ 2.08 µM) |  | 10 µg·h/mL | 17 µg/mL | 16 µg/mL | 10 µg/mL | 5.9 µg/mL | 4.3 µg/mL | 3 µg/mL | 1.2 µg/mL | < 0.2 µg/mL | 19 min | 0.014 mg/L (≈ 0.0243 µM) | 21 mg/kg | 0.024 mg/kg | 2.6 mg/kg | 0.69 mg/L (≈ 1.2 µM) | 3.1 mg/L (≈ 5.39 µM) | 5.7 mg/L (≈ 9.9 µM) |  | MIC [2]: 1.6 mg/L (≈ 2.78 µM)
6 | CO/N=C(\C(=O)NC1C(=O)N2C(C(=O)[O-])=C(C[n+]3ccc4sc(C=O)nc4c3)CSC12)c1csc(N)n1 (stereo not drawn) [Iw, 7-[(Z)-2-(2-Aminothiazol-4-yl)-2-methoxyiminoacetamido]-3-(2-formylthiazolo[4,5-c]pyridinio)methyl-3-cephem-4-carboxylate] | 0.17 mg/L (≈ 0.304 µM) | 0.53 mg/L (≈ 0.947 µM) | 11 µg·h/mL | 20 µg/mL | 19 µg/mL | 8.9 µg/mL | 6.6 µg/mL | 3.9 µg/mL | 2 µg/mL | 1 µg/mL | 0.48 µg/mL | 19 min | 0.016 mg/L (≈ 0.0286 µM) | 4.7 mg/kg | 0.015 mg/kg | 1.3 mg/kg |  |  | 1.7 mg/L (≈ 3.04 µM) | 0.2 mg/L (≈ 0.357 µM) | MIC [10]: 1.6 mg/L (≈ 2.86 µM)
